According to PubChem BioAssay AID651770 (Broad Institute, 2012):
Where “and” joins values, the source holds several entries; their conditions need not be identical. Equal entries are not always repeated. Results filed as inconclusive are left out. Calls of active or inactive are those of the source.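 How the source made its calls: active means fitted dose curve reaches a 40% decrease at a concentration up to twice the top valid dose; inconclusive means flat curve showing 30 to 70% expression rise, or poor fit; inactive means the rest.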

System: not listed separately
Assay: suppression of MITF target gene TRPM1 mRNA, dose response, orthogonal assay for MITF inhibitor project, cell-based, SK-MEL-5, RT-qPCR, dry powder samples (AID 651770)
Settings: SK-MEL-5, TRPM1 mRNA qPCR (delta-delta-Ct), overnight; at 35 µM (top of the series)

Compound | TRPM1 expression decrease
COc1ccc(NC2=C(N3CCCCC3)C(=O)c3ccccc3C2=O)cc1 | 78% (inactive)

System: SK-MEL-5, TRPM1 mRNA qPCR (delta-delta-Ct), overnight
Assay: as above
Settings: not given

Compound | AC40
O=C1C=C(NS(=O)(=O)c2ccccc2)C(=O)c2ccccc21 | 193 nM
NC1=C(NS(=O)(=O)c2ccccc2)C(=O)c2ccccc2C1=O | 1850 nM
NC1=C(NS(=O)(=O)c2cccs2)C(=O)c2ccccc2C1=O | 987 nM
COC1=C(Nc2ccccc2)C(=O)c2ccccc2C1=O | 336 nM
CC(C)N1CCN(C2=C(Nc3ccc(F)cc3F)C(=O)c3ccccc3C2=O)CC1 | 2020 nM
O=C1C=C(Nc2ccc([N+](=O)[O-])c(C(F)(F)F)c2)C(=O)c2ccccc21 | 302 nM
NS(=O)(=O)c1ccc(NC2=CC(=O)c3ccccc3C2=O)cc1 | 163 nM
NC1=C(NC(=O)c2ccccc2)C(=O)c2ccccc2C1=O | 722 nM
O=C1C=C(NS(=O)(=O)c2cccs2)C(=O)c2ccccc21 | 333 nM
COC1=C(NS(=O)(=O)c2ccccc2)C(=O)c2ccccc2C1=O | 3980 nM
O=C1C(Nc2ccc(Cl)cc2)=C(N2CCCC2)C(=O)c2ccccc21 | 10300 nM
C=CCNC1=C(Cl)C(=O)c2ccccc2C1=O | 943 nM
NC1=C(NS(=O)(=O)c2ccc(Br)cc2)C(=O)c2ccccc2C1=O | 4090 nM
COC1=C(NS(=O)(=O)c2ccc(Br)cc2)C(=O)c2ccccc2C1=O | 4440 nM
CCN1CCN(C2=C(Nc3ccc(F)cc3F)C(=O)c3ccccc3C2=O)CC1 | 3190 nM
CN1CCN(C2=C(NS(=O)(=O)c3ccc(Br)s3)C(=O)c3ccccc3C2=O)CC1 | 1130 nM
O=C1C=C(NS(=O)(=O)c2ccc(Br)cc2)C(=O)c2ccccc21 | 850 nM
O=C1C(Nc2ccccc2)=C(c2ccccc2)C(=O)c2ccccc21 | 8180 nM
CN1CCN(C2=C(Nc3ccc(F)cc3F)C(=O)c3ccccc3C2=O)CC1 | 1150 nM
CC(C)N1CCN(C2=C(Nc3ccc(F)cc3)C(=O)c3ccccc3C2=O)CC1 | 4910 nM
NC1=CC(=O)c2ccccc2C1=O | 3410 nM
O=C1C=C(Nc2ccccc2)C(=O)c2ccccc21 | 740 nM and 323 nM
COC1=C(NS(=O)(=O)c2cccs2)C(=O)c2ccccc2C1=O | 4390 nM
NC1=C(NS(=O)(=O)c2ccc(Br)s2)C(=O)c2ccccc2C1=O | 5240 nM
O=C(NC1=C(Cl)C(=O)c2ccccc2C1=O)c1ccccc1 | 164 nM
CCN1CCN(C2=C(NC(=O)c3ccccc3)C(=O)c3ccccc3C2=O)CC1 | 1160 nM
O=C1C(NS(=O)(=O)c2cccs2)=C(c2ccccc2)C(=O)c2ccccc21 | 1680 nM
CCN1CCN(C2=C(NS(=O)(=O)c3ccc(Br)cc3)C(=O)c3ccccc3C2=O)CC1 | 4930 nM
